Source: patent publication US8962608B2, “Cycloalkylnitrile pyrazole carboxamides as janus kinase inhibitors” (Merck Sharp & Dohme Corp., priority 2011, dated 2015)

Experiments:
[1] = target: JAK1 (recombinant purified GST-tagged catalytic domain) (Homo sapiens (Human), UniProt P23458); test: biochemical;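 further: biochemical assay with HTRF read-out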
[2] = target: JAK2 (recombinant purified GST-tagged catalytic domain) (Homo sapiens (Human), UniProt O60674); test: biochemical;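 further: biochemical JAK kinase assay with HTRF detection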
Chain of JAK2 (recombinant purified GST-tagged catalytic domain) (O60674 849-1124): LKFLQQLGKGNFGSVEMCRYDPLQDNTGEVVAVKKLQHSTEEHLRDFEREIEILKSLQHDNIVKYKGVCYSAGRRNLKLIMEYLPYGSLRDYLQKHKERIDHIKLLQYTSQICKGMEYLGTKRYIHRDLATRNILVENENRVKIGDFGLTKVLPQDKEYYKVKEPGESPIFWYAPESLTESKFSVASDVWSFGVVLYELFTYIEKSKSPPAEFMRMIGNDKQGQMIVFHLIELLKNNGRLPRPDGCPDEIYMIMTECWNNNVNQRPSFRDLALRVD

Chain of JAK1 (recombinant purified GST-tagged catalytic domain) (P23458 875-1153): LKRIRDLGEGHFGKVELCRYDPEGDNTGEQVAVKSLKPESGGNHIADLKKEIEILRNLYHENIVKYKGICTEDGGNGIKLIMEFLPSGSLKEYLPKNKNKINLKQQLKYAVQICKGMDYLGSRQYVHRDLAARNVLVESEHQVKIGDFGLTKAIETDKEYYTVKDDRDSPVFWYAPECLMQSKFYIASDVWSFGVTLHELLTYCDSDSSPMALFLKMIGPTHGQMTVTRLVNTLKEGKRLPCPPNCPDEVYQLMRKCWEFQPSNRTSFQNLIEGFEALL

SMILES | IC50 [1] [nM] | IC50 [2] [nM]
N#C[C@H]1CCCC[C@@H]1n1cc(C(N)=O)c(Nc2cnc3c(c2)CNC3=O)n1 (single isomer, unassigned) [Example 17-76, 1-[(1R,2R or 1S,2S)-2-cyanocyclohexyl]-3-[(7-oxo-6,7-dihydro-5H-pyrrolo[3,4-b]pyridin-3-yl)amino]-1H-pyrazole-4-carboxamide] | 0.55 | 7
COC(=O)c1ncc(Nc2nn([C@H]3CCCC[C@@H]3C#N)cc2C(N)=O)cc1C (single isomer, unassigned) [Example 17-78, methyl 5-({4-carbamoyl-1-[(1R,2R or 1S,2S)-2-cyanocyclohexyl]-1H-pyrazol-3-yl}amino)-3-methylpyridine-2-carboxylate] | 6 | 17
N#Cc1ncc(Nc2nn([C@H]3CCCC[C@@H]3C#N)cc2C(N)=O)cc1F (single isomer, unassigned) [Example 17-79, 1-[(1R,2R or 1S,2S)-2-cyanocyclohexyl]-3-[(6-cyano-5-fluoropyridin-3-yl)amino]-1H-pyrazole-4-carboxamide] | 7 | 40
N#C[C@H]1CCCC[C@@H]1n1cc(C(N)=O)c(Nc2ccc(C3CC3)nc2)n1 (single isomer, unassigned) [Example 17-80, 1-[(1R,2R or 1S,2S)-2-cyanocyclohexyl]-3-[(6-cyclopropylpyridin-3-yl)amino]-1H-pyrazole-4-carboxamide] | 12 | 26
N#C[C@H]1CCCC[C@@H]1n1cc(C(N)=O)c(Nc2ccc(S(=O)(=O)Nc3ccncc3)cc2)n1 (single isomer, unassigned) [Example 17-81, 1-[(1R,2R or 1S,2S)-2-cyanocyclohexyl]-3-{[4-(pyridin-4-ylsulfamoyl)phenyl]amino}-1H-pyrazole-4-carboxamide] | 0.35 | 2
N#C[C@H]1CCCC[C@@H]1n1cc(C(N)=O)c(Nc2ccc(S(=O)(=O)NC3CCCCC3)cc2)n1 (single isomer, unassigned) [Example 17-82, 1-[(1R,2R or 1S,2S)-2-cyanocyclohexyl]-3-{[4-(cyclohexylsulfamoyl)phenyl]amino}-1H-pyrazole-4-carboxamide] | 0.5 | 1
N#C[C@H]1CCCC[C@@H]1n1cc(C(N)=O)c(Nc2ccc(S(=O)(=O)NCc3ccccc3)cc2)n1 (single isomer, unassigned) [Example 17-83, 3-{[4-(benzylsulfamoyl)phenyl]amino}-1-[(1R,2R or 1S,2S)-2-cyanocyclohexyl]-1H-pyrazole-4-carboxamide] | 0.2 | 0.9
N#C[C@H]1CCCC[C@@H]1n1cc(C(N)=O)c(Nc2ccc(S(=O)(=O)NCc3cccnc3)cc2)n1 (single isomer, unassigned) [Example 17-84, 1-[(1R,2R or 1S,2S)-2-cyanocyclohexyl]-3-({4-[(pyridin-3-ylmethyl)sulfamoyl]phenyl}amino)-1H-pyrazole-4-carboxamide] | 0.3 | 1
N#C[C@H]1CCCC[C@@H]1n1cc(C(N)=O)c(Nc2ccc(S(=O)(=O)NCc3ccccn3)cc2)n1 (single isomer, unassigned) [Example 17-85, 1-[(1R,2R or 1S,2S)-2-cyanocyclohexyl]-3-({4-[(pyridin-2-ylmethyl)sulfamoyl]phenyl}amino)-1H-pyrazole-4-carboxamide] | 0.9 | 4
N#C[C@H]1CCCC[C@@H]1n1cc(C(N)=O)c(Nc2ccc(S(=O)(=O)NCc3ccncc3)cc2)n1 (single isomer, unassigned) [Example 17-86, 1-[(1R,2R or 1S,2S)-2-cyanocyclohexyl]-3-({4-[(pyridin-4-ylmethyl)sulfamoyl]phenyl}amino)-1H-pyrazole-4-carboxamide] | 0.25 | 0.95
N#C[C@H]1CCCC[C@@H]1n1cc(C(N)=O)c(Nc2ccc(S(=O)(=O)NCCN3CCCC3)cc2)n1 (single isomer, unassigned) [Example 17-87, 1-[(1R,2R or 1S,2S)-2-cyanocyclohexyl]-3-({4-[(2-pyrrolidin-1-ylethyl)sulfamoyl]phenyl}amino)-1H-pyrazole-4-carboxamide] | 0.5 | 2
Cc1cccc(C)c1NS(=O)(=O)c1ccc(Nc2nn([C@H]3CCCC[C@@H]3C#N)cc2C(N)=O)cc1 (single isomer, unassigned) [Example 17-88, 1-[(1R,2R or 1S,2S)-2-cyanocyclohexyl]-3-({4-[(2,6-dimethylphenyl)sulfamoyl]phenyl}amino)-1H-pyrazole-4-carboxamide] | 1 | 9
CC(=O)N1CCN(S(=O)(=O)c2ccc(Nc3nn([C@H]4CCCC[C@@H]4C#N)cc3C(N)=O)cc2)CC1 (single isomer, unassigned) [Example 17-89, 3-({4-[(4-acetylpiperazin-1-yl)sulfonyl]phenyl}amino)-1-[(1R,2R or 1S,2S)-2-cyanocyclohexyl]-1H-pyrazole-4-carboxamide] | 0.5 | 1
N#C[C@H]1CCCC[C@@H]1n1cc(C(N)=O)c(Nc2ccc(S(=O)(=O)NCc3ccc(Cl)cc3)cc2)n1 (single isomer, unassigned) [Example 17-90, 3-({4-[(4-chlorobenzyl)sulfamoyl]phenyl}amino)-1-[(1R,2R or 1S,2S)-2-cyanocyclohexyl]-1H-pyrazole-4-carboxamide] | 1 | 4
N#C[C@H]1CCCC[C@@H]1n1cc(C(N)=O)c(Nc2ccc(S(=O)(=O)NCc3ccccc3Cl)cc2)n1 (single isomer, unassigned) [Example 17-91, 3-({4-[(2-chlorobenzyl)sulfamoyl]phenyl}amino)-1-[(1R,2R or 1S,2S)-2-cyanocyclohexyl]-1H-pyrazole-4-carboxamide] | 0.5 | 2
N#C[C@H]1CCCC[C@@H]1n1cc(C(N)=O)c(Nc2ccc(S(=O)(=O)N3CCC4(CC3)OCCO4)cc2)n1 (single isomer, unassigned) [Example 17-92, 1-[(1R,2R or 1S,2S)-2-cyanocyclohexyl]-3-{[4-(1,4-dioxa-8-azaspiro[4.5]dec-8-ylsulfonyl)phenyl]amino}-1H-pyrazole-4-carboxamide] | 0.9 | 3
N#C[C@H]1CCCC[C@@H]1n1cc(C(N)=O)c(Nc2ccc(S(=O)(=O)Nc3ccc(C(F)(F)F)cc3)cc2)n1 (single isomer, unassigned) [Example 17-95, 1-[(1R,2R or 1S,2S)-2-cyanocyclohexyl]-3-[(4-{[4-(trifluoromethyl)phenyl]sulfamoyl}phenyl)amino]-1H-pyrazole-4-carboxamide] | 6 | 31
N#C[C@H]1CCCC[C@@H]1n1cc(C(N)=O)c(Nc2ccc(S(=O)(=O)NCc3ccc(C(F)(F)F)cc3)cc2)n1 (single isomer, unassigned) [Example 17-96, 1-[(1R,2R or 1S,2S)-2-cyanocyclohexyl]-3-[(4-{[4-(trifluoromethyl)benzyl]sulfamoyl}phenyl)amino]-1H-pyrazole-4-carboxamide] | 2 | 7
COc1cccc(N2CCN(S(=O)(=O)c3ccc(Nc4nn([C@H]5CCCC[C@@H]5C#N)cc4C(N)=O)cc3)CC2)c1 (single isomer, unassigned) [Example 17-97, 1-[(1R,2R or 1S,2S)-2-cyanocyclohexyl]-3-[(4-{[4-(3-methoxyphenyl)piperazin-1-yl]sulfonyl}phenyl)amino]-1H-pyrazole-4-carboxamide] | 9 | 24
COCCNS(=O)(=O)c1ccc(Nc2nn([C@H]3CCCC[C@@H]3C#N)cc2C(N)=O)cc1 (single isomer, unassigned) [Example 17-98, 1-[(1R,2R or 1S,2S)-2-cyanocyclohexyl]-3-({4-[(2-methoxyethyl)sulfamoyl]phenyl}amino)-1H-pyrazole-4-carboxamide] | 0.25 | 1
N#C[C@H]1CCCC[C@@H]1n1cc(C(N)=O)c(Nc2ccc(C(F)(F)F)nc2)n1 (single isomer, unassigned) [Example 17-101, 1-[(1S,2S or 1R,2R)-2-cyanocyclohexyl]-3-{[6-(trifluoromethyl)pyridin-3-yl]amino}-1H-pyrazole-4-carboxamide] | 2 | 9
N#C[C@H]1CCCC[C@@H]1n1cc(C(N)=O)c(Nc2ccc(Cl)cc2)n1 (single isomer, unassigned) [Example 17-107, 3-[(4-chlorophenyl)amino]-1-[(1S,2S or 1R,2R)-2-cyanocyclohexyl]-1H-pyrazole-4-carboxamide] | 0.95 | 11
N#C[C@H]1CCCC[C@@H]1n1cc(C(N)=O)c(Nc2ccc(Cl)cc2)n1 (single isomer, unassigned) [Example 17-108, 3-[(4-chlorophenyl)amino]-1-[(1S,2S or 1R,2R)-2-cyanocyclohexyl]-1H-pyrazole-4-carboxamide] | 8 | 120
N#C[C@H]1CCCC[C@@H]1n1cc(C(N)=O)c(Nc2ccc(C(F)(F)F)nc2)n1 (single isomer, unassigned) [Example 17-109, 1-[(1S,2S or 1R,2R)-2-cyanocyclohexyl]-3-{[6-(trifluoromethyl)pyridin-3-yl]amino}-1H-pyrazole-4-carboxamide] | 50 | 260
Cn1cc(-c2cncc(Nc3nn(C4CCCC[C@@H]4C#N)cc3C(N)=O)c2)cn1 (single isomer, unassigned) [Example 21-1, 1-[(1S,2S or 1R,2R)-2-Cyanocyclohexyl]-3-{[5-(1-methyl-1H-pyrazol-4-yl)pyridin-3-yl]amino}-1H-pyrazole-4-carboxamide] | 6 | 73
N#C[C@H]1C[C@H](O)CC[C@@H]1n1cc(C(N)=O)c(Nc2ccc(OC(F)(F)F)cc2)n1 (single isomer, unassigned) [Example 24, 1-((1S,2S or 1R,2R)-2-cyano-4(R)-hydroxycyclohexyl)-3-((4-(trifluoromethoxy)phenyl)amino)-1H-pyrazole-4-carboxamide] | 6 | 61
